The results in this text go back to US9802901B2, “Antibacterial 2H-indazole derivatives” (priority 2013, dated 2017).

Test in all cases: Bacterial growth minimal inhibitory concentration (broth microdilution, CLSI M7-A7)
Background: Dilution methods test growth across graded concentrations, often in twofold steps.

The subject of one assay is E. coli ATCC25922. The format is cell-based, Escherichia coli. The note with it: cation-adjusted Mueller-Hinton Broth, microdilution, quinolone-sensitive strain; for MIC: Escherichia coli, ATCC25922, read-out: MIC for E. coli ATCC25922. Here is the method:
(§1) Minimal Inhibitory Concentrations (MICs; mg/L) were determined in cation-adjusted Mueller-Hinton Broth by a microdilution method following the description given in “Methods for Dilution Antimicrobial Susceptibility Tests for Bacteria that Grow Aerobically”, Approved standard, 7th ed., Clinical and Laboratory Standards Institute (CLSI) Document M7-A7, Wayne, Pa., USA (2006).
(§2) All Example compounds, except the compound of Example 62, were tested against several Gram-positive and Gram-negative bacteria. […] K. pneumoniae A-651 and Acinetobacter baumannii T6474 are multiply-resistant strains (in particular quinolone-resistant), while E. coli ATCC25922 and P. aeruginosa ATCC27853 are quinolone-sensitive strains.

The next assay deals with P. aeruginosa ATCC27853. The format is cell-based, Pseudomonas aeruginosa. The note with it: cation-adjusted Mueller-Hinton Broth, microdilution, quinolone-sensitive strain; for MIC: Pseudomonas aeruginosa, ATCC27853, read-out: MIC for P. aeruginosa ATCC27853. How it is done: as §1, §2
Assay [1] concerns Acinetobacter baumannii T6474. The format is cell-based. The note with it: cation-adjusted Mueller-Hinton Broth, microdilution, multiply-resistant (quinolone-resistant) strain; for MIC: Acinetobacter baumannii, T6474, read-out: MIC for A. Baumannii T6474. Here is the method: as §1, §2
A further assay concerns K. pneumoniae A-651. The format is cell-based, Klebsiella pneumoniae. Conditions: cation-adjusted Mueller-Hinton Broth, microdilution, multiply-resistant (quinolone-resistant) strain; for MIC: Klebsiella pneumoniae, A651, read-out: MIC for K. Pneumoniae A-651. Here is the method: as §1, §2

≈ marks a conversion by molar mass, not a printed value.

Usually MIC stands for the least concentration at which growth counts as inhibited. For the compound `C[C@@](CCn1cc2c(F)c(C#Cc3ccc(CO)cc3)ccc2n1)(C(=O)NO)S(C)(=O)=O.O=C(O)C(F)(F)F` [Example 23, (R)-4-[4-fluoro-5-(4-hydroxymethyl-phenylethynyl)-indazol-2-yl]-N-hydroxy-2-methylsulfonyl-2-methyl-butanamide trifluoro-acetic acid salt], the MIC in the assay on E. coli ATCC25922 came to 0.25 µg/mL; in the assay on P. aeruginosa ATCC27853, 4 µg/mL; in assay [1] it was 1 µg/mL; in the assay on K. pneumoniae A-651, 0.25 µg/mL.
`C[C@@](CCn1cc2cc(C#CC#CC3(CO)COC3)ccc2n1)(C(=O)NO)S(C)(=O)=O` [Example 68, (R)—N-hydroxy-4-(5-((3-(hydroxymethyl)oxetan-3-yl)buta-1,3-diyn-1-yl)-2H-indazol-2-yl)-2-methyl-2-(methylsulfonyl)butanamide]: the minimum inhibitory concentration (MIC) is 1 µg/mL (≈ 2.24 µM) in the assay with E. coli ATCC25922, 1 µg/mL (≈ 2.24 µM) in the assay with P. aeruginosa ATCC27853, above 32 µg/mL in assay [1] and 1 µg/mL (≈ 2.24 µM) with K. pneumoniae A-651.
Take `C[C@@](CCn1cc2c(F)c(C#CC#C[C@H]3C[C@@H]3CO)ccc2n1)(C(=O)NO)S(C)(=O)=O` (relative stereo) [Example 18, (R)-4-{4-fluoro-5-[4-((1S*,2S*)-2-hydroxymethyl-cyclopropyl)-buta-1,3-diynyl]-indazol-2-yl}-N-hydroxy-2-methylsulfonyl-2-methyl-butanamide]: the MIC was determined as 0.125 µg/mL (≈ 0.279 µM) in the assay on E. coli ATCC25922, 0.5 µg/mL (≈ 1.12 µM) in the assay on P. aeruginosa ATCC27853, 4 µg/mL (≈ 8.94 µM) in assay [1] and 0.125 µg/mL (≈ 0.279 µM) with K. pneumoniae A-651.
On to `COc1cccc(-c2ccc3nn(CCC(C)(C(=O)NO)S(C)(=O)=O)cc3c2)c1F` (racemic) [RE7, (RS)-4-(5-(2-fluoro-3-methoxyphenyl)-2H-indazol-2-yl)-N-hydroxy-2-methyl-2-(methylsulfonyl)butanamide], for which the MIC stood at 0.125 µg/mL (≈ 0.287 µM) in the assay with E. coli ATCC25922, 2 µg/mL (≈ 4.59 µM) in the assay on P. aeruginosa ATCC27853, 0.5 µg/mL (≈ 1.15 µM) in assay [1] and 0.125 µg/mL (≈ 0.287 µM) in the assay on K. pneumoniae A-651.
As to `CC(CCn1cc2cc(CCc3ccccc3)ccc2n1)(C(=O)NO)S(C)(=O)=O` (racemic) [RE5, (RS)—N-hydroxy-2-methylsulfonyl-2-methyl-4-(5-phenethyl-indazol-2-yl)-butanamide], the MIC was 0.5 µg/mL (≈ 1.2 µM) in the assay with E. coli ATCC25922, 8 µg/mL (≈ 19.3 µM) in the assay with P. aeruginosa ATCC27853, 0.25 µg/mL (≈ 0.602 µM) in assay [1] and 2 µg/mL (≈ 4.81 µM) in the assay on K. pneumoniae A-651.
In the case of `CC(C)(O)c1ccc(C#Cc2ccc3nn(CC[C@](C)(C(=O)NO)S(C)(=O)=O)cc3c2)cc1` [Example 27, (R)—N-hydroxy-4-(5-((4-(2-hydroxypropan-2-yl)phenyl)ethynyl)-2H-indazol-2-yl)-2-methyl-2-(methylsulfonyl)butanamide], the MIC in the assay on E. coli ATCC25922 came out at 0.063 µg/mL (≈ 0.134 µM); in the assay on P. aeruginosa ATCC27853 it was 0.5 µg/mL (≈ 1.06 µM); in assay [1], 0.25 µg/mL (≈ 0.532 µM); in the assay with K. pneumoniae A-651, 0.125 µg/mL (≈ 0.266 µM).
For `CC(C)(N)CC#CC#Cc1ccc2nn(CC[C@](C)(C(=O)NO)S(C)(=O)=O)cc2c1` [Example 82, (R)-4-(5-(6-amino-6-methylhepta-1,3-diyn-1-yl)-2H-indazol-2-yl)-N-hydroxy-2-methyl-2-(methylsulfonyl)butanamide], the MIC with E. coli ATCC25922 is 4 µg/mL (≈ 9.29 µM); with P. aeruginosa ATCC27853 it was 4 µg/mL (≈ 9.29 µM); in assay [1] it was above 32 µg/mL; in the assay on K. pneumoniae A-651 it was 8 µg/mL (≈ 18.6 µM).
Turning to `C[C@@](CCn1cc2cc(C#CC#CC3CCC(NC(=O)CN)C3)ccc2n1)(C(=O)NO)S(C)(=O)=O` (stereo partly drawn) [Example 70, (R)-4-(5-((3-(2-aminoacetamido)cyclopentyl)buta-1,3-diyn-1-yl)-2H-indazol-2-yl)-N-hydroxy-2-methyl-2-(methylsulfonyl)butanamide], the MIC is 1 µg/mL (≈ 2 µM) in the assay with E. coli ATCC25922, 2 µg/mL (≈ 4 µM) in the assay with P. aeruginosa ATCC27853, above 32 µg/mL in assay [1] and 1 µg/mL (≈ 2 µM) in the assay with K. pneumoniae A-651.
For the compound `COc1ccc(-c2cc3cn(CC[C@](C)(C(=O)NO)S(C)(=O)=O)nc3cc2F)cc1` [Example 3, (R)-4-[6-fluoro-5-(4-methoxy-phenyl)-indazol-2-yl]-N-hydroxy-2-methylsulfonyl-2-methyl-butanamide], the MIC in the assay on E. coli ATCC25922 was 0.063 µg/mL (≈ 0.145 µM); in the assay on P. aeruginosa ATCC27853, 2 µg/mL (≈ 4.59 µM); in assay [1], 0.5 µg/mL (≈ 1.15 µM); in the assay with K. pneumoniae A-651, 0.125 µg/mL (≈ 0.287 µM).
For `C[C@@](CCn1cc2cc(C#Cc3ccc(CO)c(F)c3)ccc2n1)(C(=O)NO)S(C)(=O)=O` [Example 22, (R)-4-[5-(3-fluoro-4-hydroxymethyl-phenylethynyl)-indazol-2-yl]-N-hydroxy-2-methylsulfonyl-2-methyl-butanamide], the MIC came to 0.125 µg/mL (≈ 0.272 µM) in the assay on E. coli ATCC25922, 2 µg/mL (≈ 4.35 µM) with P. aeruginosa ATCC27853, 1 µg/mL (≈ 2.18 µM) in assay [1] and 0.5 µg/mL (≈ 1.09 µM) with K. pneumoniae A-651.
Regarding `C[C@@](CCn1cc2cc(C#CC#CC3CCN(C(=O)CO)CC3)ccc2n1)(C(=O)NO)S(C)(=O)=O` [Example 78], in the assay on E. coli ATCC25922, the “MIC for E. coli ATCC25922” value was found to be 0.5 µg/mL. The “MIC for P. aeruginosa ATCC27853” value in the assay with P. aeruginosa ATCC27853 was 1 µg/mL. Further, in assay [1], the “MIC for A. Baumannii T6474” value worked out at 4 µg/mL. Further, the “MIC for K. Pneumoniae A-651” value in the assay on K. pneumoniae A-651 came to 2 µg/mL.
As to `CSc1ccc(-c2ccc3nn(CC[C@](C)(C(=O)NO)S(C)(=O)=O)cc3c2)c(F)c1` [Example 9, (R)-4-[5-(2-fluoro-4-methylsulfanyl-phenyl)-indazol-2-yl]-N-hydroxy-2-methylsulfonyl-2-methyl-butanamide], the MIC in the assay with E. coli ATCC25922 was determined as 0.063 µg/mL (≈ 0.14 µM); in the assay with P. aeruginosa ATCC27853, 2 µg/mL (≈ 4.43 µM); in assay [1] it was 0.25 µg/mL (≈ 0.554 µM); in the assay on K. pneumoniae A-651 it was 0.063 µg/mL (≈ 0.14 µM).
For `C[C@@](CCn1cc2cc(-c3ccc(OCCO)cc3F)ccc2n1)(C(=O)NO)S(C)(=O)=O` [Example 50, (R)-4-(5-(2-fluoro-4-(2-hydroxyethoxy)phenyl)-2H-indazol-2-yl)-N-hydroxy-2-methyl-2-(methylsulfonyl)butanamide], the MIC stood at 0.5 µg/mL (≈ 1.07 µM) in the assay on E. coli ATCC25922, 2 µg/mL (≈ 4.3 µM) with P. aeruginosa ATCC27853, 2 µg/mL (≈ 4.3 µM) in assay [1] and 1 µg/mL (≈ 2.15 µM) in the assay on K. pneumoniae A-651.
On to `C[C@@](CCn1cc2cc(C#CC#C[C@@H]3C[C@H]3CO)ccc2n1)(C(=O)NO)S(C)(=O)=O.O=CO` [Example 37], for which the “MIC for E. coli ATCC25922” value with E. coli ATCC25922 was 0.063 µg/mL. Besides, in the assay on P. aeruginosa ATCC27853, the “MIC for P. aeruginosa ATCC27853” value worked out at 0.25 µg/mL. In assay [1], the “MIC for A. Baumannii T6474” value came to 2 µg/mL. Besides, the “MIC for K. Pneumoniae A-651” value in the assay on K. pneumoniae A-651 amounted to 0.063 µg/mL.
As to `C[C@@](CCn1cc2c(F)c(C#CC#CC3(O)COC3)ccc2n1)(C(=O)NO)S(C)(=O)=O` [Example 38, (R)-4-{4-fluoro-5-[4-(3-hydroxy-oxetan-3-yl)-buta-1,3-diynyl]-indazol-2-yl}-N-hydroxy-2-methylsulfonyl-2-methyl-butanamide], the MIC with E. coli ATCC25922 is 0.5 µg/mL (≈ 1.11 µM); in the assay on P. aeruginosa ATCC27853, 1 µg/mL (≈ 2.22 µM); in assay [1], above 32 µg/mL; with K. pneumoniae A-651 it was 1 µg/mL (≈ 2.22 µM).
`C[C@@](CCn1cc2cc(-c3ccc(NC(=O)CO)cc3)ccc2n1)(C(=O)NO)S(C)(=O)=O` [Example 49, (R)—N-hydroxy-4-(5-(4-(2-hydroxyacetamido)phenyl)-2H-indazol-2-yl)-2-methyl-2-(methylsulfonyl)butanamide]: the MIC in the assay on E. coli ATCC25922 is 4 µg/mL (≈ 8.69 µM); with P. aeruginosa ATCC27853, 4 µg/mL (≈ 8.69 µM); in assay [1], above 32 µg/mL; in the assay on K. pneumoniae A-651, 4 µg/mL (≈ 8.69 µM).
`CN(C)CC#CC#Cc1ccc2nn(CC[C@](C)(C(=O)NO)S(C)(=O)=O)cc2c1` [Example 75, (R)-4-(5-(5-(dimethylamino)penta-1,3-diyn-1-yl)-2H-indazol-2-yl)-N-hydroxy-2-methyl-2-(methylsulfonyl)butanamide]: the MIC with E. coli ATCC25922 is 0.125 µg/mL (≈ 0.3 µM); in the assay with P. aeruginosa ATCC27853, 0.5 µg/mL (≈ 1.2 µM); in assay [1], above 32 µg/mL; with K. pneumoniae A-651, 0.15 µg/mL (≈ 0.36 µM).
Take `C[C@@](CCn1cc2cc(C#Cc3ccc(NC(=O)CO)c(F)c3)ccc2n1)(C(=O)NO)S(C)(=O)=O` [Example 45, (R)-4-(5-((3-fluoro-4-(2-hydroxyacetamido)phenyl)ethynyl)-2H-indazol-2-yl)-N-hydroxy-2-methyl-2-(methylsulfonyl)butanamide]: the MIC with E. coli ATCC25922 amounted to 0.25 µg/mL (≈ 0.497 µM); in the assay on P. aeruginosa ATCC27853, 1 µg/mL (≈ 1.99 µM); in assay [1], 8 µg/mL (≈ 15.9 µM); in the assay on K. pneumoniae A-651, 1 µg/mL (≈ 1.99 µM).
For `C[C@@](CCn1cc2cc(C#CC#C[C@@H]3C[C@H]3[C@H](O)CO)ccc2n1)(C(=O)NO)S(C)(=O)=O` [Example 71, (R)-4-(5-(((1R,2R)-2-((S)-1,2-dihydroxyethyl)cyclopropyl)buta-1,3-diyn-1-yl)-2H-indazol-2-yl)-N-hydroxy-2-methyl-2-(methylsulfonyl)butanamide], the MIC in the assay with E. coli ATCC25922 turned out to be 0.25 µg/mL (≈ 0.544 µM); in the assay on P. aeruginosa ATCC27853, 0.25 µg/mL (≈ 0.544 µM); in assay [1], 8 µg/mL (≈ 17.4 µM); with K. pneumoniae A-651, 0.5 µg/mL (≈ 1.09 µM).
As for `C[C@@](CCn1cc2cc(C#Cc3ccc(OCCO)cc3)ccc2n1)(C(=O)NO)S(C)(=O)=O` [Example 44, (R)—N-hydroxy-4-(5-((4-(2-hydroxyethoxy)phenyl)ethynyl)-2H-indazol-2-yl)-2-methyl-2-(methylsulfonyl)butanamide], the MIC was determined as 0.125 µg/mL (≈ 0.265 µM) with E. coli ATCC25922, 1 µg/mL (≈ 2.12 µM) with P. aeruginosa ATCC27853, 0.25 µg/mL (≈ 0.53 µM) in assay [1] and 0.25 µg/mL (≈ 0.53 µM) in the assay on K. pneumoniae A-651.
As to `C[C@@](CCn1cc2cc(C#Cc3ccc(CO)cc3)ccc2n1)(C(=O)NO)S(C)(=O)=O` [Example 21, (R)—N-hydroxy-4-(5-((4-(hydroxymethyl)phenyl)ethynyl)-2H-indazol-2-yl)-2-methyl-2-(methylsulfonyl)butanamide], the MIC with E. coli ATCC25922 was determined as 0.125 µg/mL (≈ 0.283 µM); with P. aeruginosa ATCC27853, 1 µg/mL (≈ 2.26 µM); in assay [1] it was 0.5 µg/mL (≈ 1.13 µM); with K. pneumoniae A-651, 0.25 µg/mL (≈ 0.566 µM).
